System: streptozocin (STZ)-induced type I diabetes model of neuropathic pain
Assay: streptozocin (STZ)-induced type I diabetes model of neuropathic pain (von Frey mechanical withdrawal threshold)
Type: in vivo
Details: rats, 10 mpk, as compared to 10 mpk of celecoxib; average of 6 rats (FIG. 3)
Method: Diabetic neuropathic pain was modeled using streptozocin which targets and kills the pancreatic beta islet cells rendering the animals with type I diabetes. The rats were acclimated for one hour and tested for baseline thresholds before inducing diabetes. The baseline mechanical withdrawal thresholds were established using the von Frey mechanical nociceptive test with an electronic anesthesiometer (IITC, Woodland Hills, Calif.). Subsequently, streptozocin (55 mg/kg) in saline was injected via tail vein per previously reported methods (Aley, K. O. and Levine J. D. J. Pain 2001, 2, 146.). After five days the allodynia of diabetic rats was confirmed with the von Frey nociceptive assay. Rats were placed in clear acrylic chambers on a steel mesh floor. The hind paw of the rat was probed through the mesh with a rigid tip probe connected to the electronic readout pressure meter set to the maximum hold setting. The withdrawal thresholds per rat were measured 3-5 times at 1 minute intervals for each time point.
The baseline diabetic allodynia was quantified again at the beginning of all test days. The rats were then administered vehicle or sEH inhibitor via oral gavage and tested at 30 min. 1, 2, 3, 4, 5, and 6 h for mechanical withdrawal thresholds. […]

CC(=O)N1CCC(NC(=O)NC23CC4CC(CC(C4)C2)C3)CC1 [UC1153]
pain response (% of baseline; below 60% of baseline is painful state, 100% is lack of enhanced pain detection): significantly alleviate the pain response
